According to patent US12338263B2, “Antibacterial aminoglycoside derivatives” (priority 2019, dated 2025):
In brackets after ≈: the same amount, converted by molar mass. Like-named read-outs stand apart in the source and are kept apart here.

Legend:
[1] = Toxicity test on HK-2 cells (Alma Blue); assay type: cell-based; settings: human
Experimental: (§1) On the day of the experiment, when the HK-2 cells in the culture flask reached 80%-90% confluent, the culture medium was discarded, the cells were washed twice with Dulbecco's phosphate buffered saline (DPBS) and digested for 1 to 2 minutes with 3 mL trypsin (T150 cell culture flask), and immediately 9 ml complete medium (RPMI1640+10% FBS) were added to terminate the digestion. After termination, single cells suspension were formed by pipetting gently, which were centrifuged at 1000 […] for 5 minutes. The supernatant was discarded, and fresh complete medium were added, and the cells were pipetted evenly. The actual cell density was measured according to the cell counter and the cell suspension was adjusted to 2.5×10^5 cells/mL. 80 μL of cell suspension was drawn by a row pipettor and added into a 96-well black bottom plate (2×10^4 cell/well), and then incubated in a carbon dioxide incubator for 4.5 hours, which was defined as a cell plate.
(§2) • a. The compound mother liquor was prepared according to the following table, with complete medium as the solvent;
(§3) • b. 50 microliters of complete medium was added into columns 3-11 in the 96-v well plate; • c. 75 microliters of test compound (50 mg/mL) and positive control were added to the second column of the 96-v well plate; • d. 25 microliters of compound was drawn from the second column and added into the third column, blown and sucked a few times by a row pipettor, then 25 microliters of liquid was drawn from the third column and added to the fourth column, and subsequently subjected to a 3-fold series dilution until the 10th column. From column 2 to column 11, the compound concentration was 50, 16.67, 5.56, 1.85, 0.62, 0.21, 0.07, 0.02, 0.008, 0 mg/mL; • e. 20 μL compound solutions of various concentrations prepared were transferred by a row pipettor to the corresponding wells of the cell plate, which was defined as a testing plate. Culture of the Testing Plate:
(§4) All the plates were incubated in an incubator at 37° C., 5% CO2 for 43 hours.
(§5) After incubation, 10 microliters of Alma Blue was added to the testing plate. The testing plate was immediately incubated in an incubator at 37° C., 5% CO2 for 3 hours. Then the fluorescence value of each well of the testing plate was read by a microplate reader (wavelength Ex 540 nm/Em 585 nm). Then prism software was used to simulate the curve to calculate CC50 value.

HK-2 cells = test: Toxicity test on HK-2 cells (Alma Blue); assay type: cell-based; settings: for Maximum inhibition rate: 43 hours incubation plus 3 hours Alma Blue
Experimental: as §1, §2, §3, §4, §5

spiral ganglion neurons = test: Auditory safety: density of spiral ganglion neurons; assay type: in vivo, guinea pigs
Experimental: (§6) Healthy adult guinea pigs (150-250 g) were employed as the research objects, and were randomly divided into saline control group, gentamicin group, compound Plazomicin group and Compound 1 group, with 8 animals in each group. Subcutaneous administration is used, and the following assays were carried out during and after the administration for 14 consecutive days: • 1. To analyze the effects of different drugs on the auditory function of guinea pigs, the compound action potential (CAP) of animals was recorded on the 14th day (29th day, i.e., 4 weeks) after administration. The results obtained were analyzed and the changes of the threshold shift, amplitude, latency and other indicators among different treatment groups were compared. • 2. After the different groups of animals were processed and the auditory function data thereof were collected, the cochlea of the animals was taken out for fixation and staining. Surface preparation of basilar membrane of the cochlea on one side was performed to count the loss of hair cells so as to make a cochlea map, and the cochlea on the other side was decalcified and frozen sectioned. The density of spiral ganglion neurons was counted and compared among groups. Research Results: 1. Administration Method and Treatment
(§7) Gentamicin from Dalian Meilun Biotechnology Co., Ltd., and Plazomicin and Compound 1 from WuXi AppTec (WuHan) Co., Ltd. are used, the solution of which were prepared just before use each time by using saline for dissolution to the concentration of 50 mg/mL, and the injection dose was 100 mg/kg body weight. Method: subcutaneous injection, and confirmation of no liquid leakage after each injection.
The cochlea of the guinea pig was defined as Turn 1, Turn 2, Turn 3, and Turn 4 from the basal to the apical turn. The spiral ganglion neurons (SGNs) were stained with TuJ on frozen sections, and the density thereof in a specific area were counted and compared between groups. […] Through the two-way ANOVA, there was a significant difference between the groups, F(3, 74)=35.43, p<0.0001 (see FIG. 7).

cochlear hair cells = test: Auditory safety: hair cell staining and counting on the basilar membrane of the cochlea; assay type: in vivo, guinea pigs
Experimental: as §6, §7
In order to compare the effects of different drugs on hair cells, hair cell staining and counting on the whole basilar membrane of the cochlea are performed. […] The Plazomicin group had 11.2-28.1% loss of outer hair cells in the high frequency (70-100% from the apical turn) and 16.7-24.2% loss of the outer hair cells at the beginning of the apical turn (10-20%). However, in the Compound 1 group, the loss of outer hair cells only occurred in the low-frequency region (from the top turn −40%), in which the loss rate of outer hair cells was about 2.5-11%, and the outer hair cells were relatively intact in the high frequency area (see FIG. 6 B).

[2] = system: auditory function in guinea pigs; test: Auditory safety: compound action potential (CAP) in guinea pigs; assay type: in vivo
Experimental: as §6, §7
The compound action potential (CAP) was tested and recorded when clicks and different frequencies of pure tones (1 KHz-32 kHz) were applied to each group of animals, and variations in amplitude and latency were mainly compared when clicks and medium and high frequency pure tones (16, 32 kHz) were applied. The magnitude of amplitude reflects the responsiveness of hair cells and auditory nerves. The larger the amplitude and the greater the slope of the I/O curve were, the better the responsiveness and the better the function were. In addition, the cochlea from apical turn to basal turn was responsive to sounds from low-frequency to high-frequency respectively, which is the frequency correspondence of the cochlear basilar membrane. The functional changes to different frequencies correspond to the different structural and functional changes of the cochlea fromapical turn to basal turn. The length of latency was also related to the function of the hair cells and auditory nerve response. Generally speaking, increasing of the threshold value when the cochlea was injured would inevitably lead to the extension of latency. […] In other words, the extension of latency reflected the decrease of response function. The previous ototoxicity of aminoglycoside antibiotics was mainly concentrated in the high-frequency area. In this study, the gentamicin group was consistent with previous results, as summarized below.

[3] = system: Klebsiella pneumoniae ATCC-BAA-1705; test: Drug efficacy in mice (mouse pneumonia model); assay type: in vivo; settings: CD-1 mice, 10 mpk and 30 mpk subcutaneously 2 h and 10 h after infection, read at 24 h; FIG. 2
Experimental: 21 CD-1 mice were divided into 7 cages, 3 mice per cage, and were injected intraperitoneally with the immunosuppressant cyclophosphamide (150 mpk) on the 4th day.
On the first day, 7 cages of mice were injected intraperitoneally again with the immunosuppressant cyclophosphamide (100 mpk). The strain Kpn ATCC-BAA-1705 (Klebsiella pneumoniae ATCC-BAA-1705) was recovered on a MHA plate. The recovered colonies were picked and dissolved in saline to prepare Kpn ATCC-BAA-1705 bacterial solution with a concentration of 4.00E+08 CFU/mL for later use in mouse lung infection. The amount of bacterial solution infected in the lung of experimental mice was 50 μL/mouse, that is, the inoculation amount was 2.00E+07 CFU/mouse. At 2 h and 24 h infection, the lung tissue of the mice in control group was taken and placed in 5 mL saline, homogenized, and dotted on a plate with gradient dilution.
The specific administration of mice was as follows: • (1) 2 h after infection: At the end of 2 h after infection, the lung tissue of the mice in the first cage was taken and placed in 5 mL saline, homogenized, and dotted on a plate with gradient dilution, two duplications for each mouse. The amount of bacteria loaded in the lung tissue of the mouse was counted. Mice in the third and fourth cages were injected respectively with 30 mpk and 10 mpk compound Plazomicin subcutaneously, mice in the fifth and sixth cages were injected respectively with 30 mpk and 10 mpk compound subcutaneously, and mice in the seventh cage were injected with 100 mpk meropenem subcutaneously. • (2) 10 h after infection: Mice in the third and fourth cages were injected respectively with 30 mpk and 10 mpk plazomicin subcutaneously, mice in the fifth and sixth cages were injected respectively with 30 mpk and 10 mpk compound 1 subcutaneously, and mice in the seventh cage were injected with 100 mpk meropenem subcutaneously. At the end of 24 h infection, the lung tissue of the mice in the second to seventh cages was taken and placed in 5 mL saline, homogenized, and dotted on a plate with gradient dilution, two duplications for each mouse. The amount of bacteria carried in the lung tissue of the mouse was counted, and the experimental results were summarized and shown in FIG. 2.

[4] = 43 hours incubation plus 3 hours Alma Blue, read-out: CC50 of HK-2 cell
[5] = predicted from toxicity regression curve, read-out: CC50 of compound on cells predicted by software (Prism)
[6] = guinea pig, in vivo, sc, 100 mg/kg
[7] = guinea pig, in vivo, sc, 100 mg/kg, 29 day
[8] = position 10 (% from the apical turn)
[9] = position 20 (% from the apical turn)
[10] = position 30 (% from the apical turn)
[11] = position 40 (% from the apical turn)
[12] = position 50 (% from the apical turn)
[13] = position 60 (% from the apical turn)
[14] = position 70 (% from the apical turn)
[15] = position 80 (% from the apical turn)
[16] = position 90 (% from the apical turn)
[17] = position 100 (% from the apical turn)

In the case of NCC[C@H](O)C(=O)N[C@@H]1C[C@H](N)[C@@H](O[C@H]2O[C@H](CN)[C@@H](O)[C@H](O)[C@H]2O)[C@H](O)[C@H]1O[C@H]1O[C@H](CO)[C@@H](O)[C@H](N)[C@H]1O [Amikacin], the CC50 at 43 h [1, 4] is reported as 8.16 mg/mL, the CC50 at 43 h [1, 5] is reported as 8.16 mg/mL (≈ 13.9 mM) and the Maximum inhibition rate (HK-2 cells) is reported as 68.40%.
For CCN[C@@H]1C[C@H](N)[C@@H](O[C@H]2OC(CN)=CC[C@H]2N)[C@H](O)[C@H]1O[C@H]1OC[C@](C)(O)[C@H](NC)[C@H]1O [Netilmicin], the CC50 at 43 h [1, 4] was 10.6 mg/mL, the CC50 at 43 h [1, 5] was 10.6 mg/mL (≈ 22.4 mM) and the Maximum inhibition rate (HK-2 cells) was 48.73%.
In the case of CN[C@@H]1[C@@H](O)[C@@H](O[C@@H]2[C@@H](O)[C@H](O[C@H]3OC(CNCCO)=CC[C@H]3N)[C@@H](N)C[C@H]2NC(=O)[C@@H](O)CCN)OC[C@]1(C)O [Plazomicin], the “damage to spiral ganglion neurons (SGN density vs Control group)” value (spiral ganglion neurons; [6]) is reported as “decrease in SGN density near the apical turn”, the “loss of inner hair cells” value (cochlear hair cells; guinea pig, in vivo, 29 day) is reported as 3.5±3.0% and the CC50 at 43 h [1, 4] is reported as over 10 mg/mL. The CC50 at 43 h [1, 5] was 19.5 mg/mL (≈ 33 mM), the “toxicity to HK-2 cells compared with Netilmicin and Amikacin” value (HK-2 cells) was “significantly lower than that of Netilmicin and Amikacin” and the Maximum inhibition rate (HK-2 cells) was 35.98%. The “CAP amplitude under click” value [2, 6] was “caused hearing damage”, the “CAP amplitude at 16 kHz” value [2, 7] was 282.058±22.569 uv and the “CAP amplitude at 32 kHz” value [2, 7] was 62.982±7.561 uv. For the same compound, the “hearing damage (CAP amplitude) at 16 kHz” value [2, 7] was 25.9%, the “hearing damage (CAP amplitude) at 32 kHz” value [2, 7] was 48.2% and the “in vivo activity in lung infection model (bacteria in lung tissue)” value [3] was “good in vivo activity”.
With Gentamicin the “Density of spiral ganglion neurons on Day 29” value (“Density … on Day 29” for short) (spiral ganglion neurons; Turn 1 (basal turn)) was 4.407 ± 0.517 n/10000 μm^2, the “Density … on Day 29” value (spiral ganglion neurons; Turn 2) was 5.540 ± 0.757 n/10000 μm^2 and the “Density … on Day 29” value (spiral ganglion neurons; Turn 3) was 4.604 ± 0.598 n/10000 μm^2. For the same compound, the “Density … on Day 29” value (spiral ganglion neurons; Turn 4 (apical turn)) was 5.259 ± 0.280 n/10000 μm^2, the “damage to spiral ganglion neurons (SGN density vs Control group)” value (spiral ganglion neurons; guinea pigs, 100 mg/kg subcutaneous 14 days, FIG. 7) was “obvious damage in each turn” and the “loss of outer hair cells” value (cochlear hair cells; medium and high frequency region (60-100% from the apical turn)) was 12-67.7%. The “loss of inner hair cells” value (cochlear hair cells; near the end of the basal turn (100% from the apical turn)) was 9.3±4.1%, the “Damage of inner hair cells on Day 29” value (cochlear hair cells; [8]) was 0% and the “Damage of outer ear hair cells on Day 29” value (cochlear hair cells; [8]) was 9.5 ± 2.9%. For the same compound, the “Damage of inner hair cells on Day 29” value (cochlear hair cells; [9]) was 0%, the “Damage of outer ear hair cells on Day 29” value (cochlear hair cells; [9]) was 4.1 ± 0.7% and the “Damage of inner hair cells on Day 29” value (cochlear hair cells; [10]) was 0%. For the same compound, the “Damage of outer ear hair cells on Day 29” value (cochlear hair cells; [10]) was 2.7 ± 0.7%, the “Damage of inner hair cells on Day 29” value (cochlear hair cells; [11]) was 0% and the “Damage of outer ear hair cells on Day 29” value (cochlear hair cells; [11]) was 3.2 ± 1.0%. The “Damage of inner hair cells on Day 29” value (cochlear hair cells; [12]) was 0%, the “Damage of outer ear hair cells on Day 29” value (cochlear hair cells; [12]) was 3.2 ± 1.5% and the “Damage of inner hair cells on Day 29” value (cochlear hair cells; [13]) was 0.4 ± 0.4%. For the same compound, the “Damage of outer ear hair cells on Day 29” value (cochlear hair cells; [13]) was 12.6 ± 5.6%, the “Damage of inner hair cells on Day 29” value (cochlear hair cells; [14]) was 0.6 ± 0.6% and the “Damage of outer ear hair cells on Day 29” value (cochlear hair cells; [14]) was 13.6 ± 6.1%. The “Damage of inner hair cells on Day 29” value (cochlear hair cells; [15]) was 0.2 ± 0.2%, the “Damage of outer ear hair cells on Day 29” value (cochlear hair cells; [15]) was 12.0 ± 5.4% and the “Damage of inner hair cells on Day 29” value (cochlear hair cells; [16]) was 2.5 ± 1.7%. The “Damage of outer ear hair cells on Day 29” value (cochlear hair cells; [16]) was 42.8 ± 8.2%, the “Damage of inner hair cells on Day 29” value (cochlear hair cells; [17]) was 9.3 ± 4.1% and the “Damage of outer ear hair cells on Day 29” value (cochlear hair cells; [17]) was 67.7 ± 9.8%. The “CAP amplitude at 16 kHz” value ([2]; guinea pigs, 100 mg/kg subcutaneous 14 days, 29th day, 16 kHz, 90 dB) was 373.329±15.332 uv, the “CAP amplitude at 32 kHz” value ([2]; guinea pigs, 100 mg/kg subcutaneous 14 days, 29th day, 32 kHz, 90 dB) was 31.272±5.137 uv and the “CAP amplitude under click” value ([2]; guinea pigs, 100 mg/kg subcutaneous 14 days, 29th day, click) was “consistent with the Control group”. For the same compound, the “hearing damage (CAP amplitude) at 32 kHz” value ([2]; guinea pigs, 100 mg/kg subcutaneous for 14 consecutive days, 29th day, 32 kHz) was 74.3%.
